Consider 2 molecules from patent publication US7247444B2, “Use of interleukin-19 to treat cervical cancer” (ZymoGenetics, Inc., priority 2002, dated 2007).

In the test the test system is HeLa299. The test is described as follows: HeLa299 cytoxicity assay (MTT readout). Type of test: cell-based. Conditions: HeLa299 cells, 72 hrs, complete growth media. The method, then:
We tested IL-19 in a HeLa299 cytoxicity assay to measure the ability of IL-19 to prevent cells from growing during normal growth conditions. We used MTT reagent (Promega, Madison, USA) as our detection and readout for this cell inhibition assay. Procedure of a cytoxicity assay: • Day 1—Plate cells out in complete growth media (with serum) at 5000 cells/well in a 96 well format and let them incubate overnight at 37 degrees and 5% CO2. • Day 2—Dump off media and add a dose response of appropriate ligands in complete growth media (IL-19 at 10, 100, and 1000 ng/ml.), along with a positive control retinoic acid (100 uM) in complete growth media, while leaving some wells in complete growth media as controls of how the cells normally grow under normal conditions. Put the cells in incubator and let the assay go for 72 hrs. • Day 5—Add 15 ul/well of MTT reagent, let cells inc. for 4 hrs., then add 100 ul of stop solution, let cells inc. for an additional 1 hr., then read the plate on a multilabel counter (Victor2, PerkinElmer Life Sciences Inc., Boston). The MTT protocol will give you two readings, one at a 650 wavelength (background) and one at a 572 wavelength. Subtract the 650 reading from the 572 reading to get your actual output. These numbers are averaged and converted to a % inhibition value.

As a reminder, the inhibition is the relative decrease from the control value, in per cent. A higher inhibition goes with a response far below the control.

For the molecule `CC1=C(/C=C/C(C)=C/C=C/C(C)=C/C(=O)O)C(C)(C)CCC1` [Retnoic Acid, retinoic acid], the inhibition at 100 µM (retinoic acid 100 uM) was found to be 53%.

B1: IL-19: interleukin-19 polypeptide, SEQ ID NO:2; mature secreted form from amino acid 23 (His) to 177 (Ala) (protein, listed as Homo sapiens)
chain: MKLQCVSLWLLGTILILCSVDNHGLRRCLISTDMHHIEESFQEIKRAIQAKDTFPNVTILSTLETLQIIKPLDVCCVTKNLLAFYVDRVFKDHQEPNPKILRKISSIANSFLYMQKTLRQCQEQRQCHCRQEATNATRVIHDNYDQLEVHAAAIKSLGELDVFLAWINKNHEVMSSA
In the case of B1, the “maximal inhibition of growth” value (IL-19 dose response 10, 100, and 1000 ng/ml) was 38%.
